We go through two molecules from publication PMC4053396, “Cloning, expression and biochemical characterization of the cholesterol oxidase CgChoA from Chryseobacterium gleum” (BMC Biotechnology, 2014).

For one series, the target named is T1, CgChoA (Chryseobacterium gleum, UniProt A0ABP2IT22).
T1 construct: gene HMPREF0204_11499
T1 sequence (A0ABP2IT22 1-528): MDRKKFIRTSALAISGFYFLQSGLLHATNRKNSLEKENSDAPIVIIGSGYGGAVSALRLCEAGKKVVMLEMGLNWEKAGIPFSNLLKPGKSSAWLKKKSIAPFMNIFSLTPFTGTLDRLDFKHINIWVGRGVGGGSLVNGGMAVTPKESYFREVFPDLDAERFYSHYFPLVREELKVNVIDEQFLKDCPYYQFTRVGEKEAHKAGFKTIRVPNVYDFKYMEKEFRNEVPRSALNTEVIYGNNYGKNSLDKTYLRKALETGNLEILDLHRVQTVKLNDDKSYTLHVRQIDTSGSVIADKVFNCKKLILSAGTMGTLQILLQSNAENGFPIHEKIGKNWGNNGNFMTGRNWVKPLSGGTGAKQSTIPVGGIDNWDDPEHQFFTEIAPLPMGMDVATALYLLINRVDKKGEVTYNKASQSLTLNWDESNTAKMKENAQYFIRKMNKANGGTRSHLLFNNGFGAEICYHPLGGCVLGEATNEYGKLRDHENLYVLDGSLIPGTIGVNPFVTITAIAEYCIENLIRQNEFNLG
Description: UV-vis spectrum of purified protein and of supernatant after boiling. The settings on record: co-purified cofactor; non-covalently bound. In kind it is binding.

Substrate in series [1]: CC(C)CCC[C@@H](C)[C@H]1CC[C@H]2[C@@H]3CC=C4C[C@@H](O)CC[C@]4(C)[C@H]3CC[C@]12C
Description: HRP-coupled H2O2 assay, initial rates. It counts as biochemical, Chryseobacterium gleum. The settings on record: cholesterol dispersed in water with taurocholate as sole surfactant, 0.011 M MOPS pH 6.75, 35°C, O2 as co-substrate.

As for `Cc1cc2nc3c(=O)[nH]c(=O)nc-3n(C[C@H](O)[C@H](O)[C@H](O)COP(=O)(O)OP(=O)(O)OC[C@H]3O[C@@H](n4cnc5c(N)ncnc54)[C@H](O)[C@@H]3O)c2cc1C` [FAD], the “UV-vis spectrum of purified protein and of supernatant after boiling” value at CgChoA is listed as “Only FAD that is non-covalently associated with the enzyme is detectable by this method”.

B1: CgChoA (Chryseobacterium gleum ATCC 35910) (protein)
chain: T1 sequence (A0ABP2IT22 1-528)
Turning to B1, the Km in series [1] turned out to be 500 µM.
